Key:
[1] = molecular target: SHP-2 enzyme (Met1-Leu525) (Homo sapiens (Human), UniProt Q06124); assay: SHP2 inhibition enzymatic assay; format: biochemical; details: 0.5 nM SHP-2 activated by 500 nM IRS1 peptide, 75 μM DiFMUP substrate; read-out: SHP2wt-IC50
Protocol: The assay was performed as described in YP Chen et al, Nature (535)2016. Assay volume of 20 μL/well was assembled in 384 well black polystyrene low-binding microplates (Greiner), using the following buffer: 60 mM HEPES pH 7.2, 75 mM NaCl, 75 mM KCl, 1 mM EDTA pH 8, 0.05% tween-20, 5 mM DTT. The SHP-2 enzyme (synthetized by Origene, Met1-Leu525, cat #TP750155) was used at a final concentration of 0.5 nM. The enzyme was activated by 500 nM IRS1 peptide (sequence: H2N-LN(pY)IDLDLV(dPEG8)LST(pY)ASINFQK-amide SEQ ID No. 1) and incubated with 75 μM DiFMUP (Sigma) as substrate.
Briefly, DMSO serially diluted testing compounds were transferred to the bottom of the assay plate. SHP2 was then added together with the IRS1 peptide. 30 min post incubation, the DiFMUP substrate was added to the reaction and incubated 30 min at room temperature. Finally 5 μL of 160 μM bpV (Potassium bisperoxo[1,10-phenanthroline]oxovanadate [V], Sigma) were added to stop and quench the reaction. The fluorescence was detected by a microplate reader (Envision, PerkinElmer) according to the DiFMUP excitation and emission wavelength. The lower the fluorescence the higher the SHP2 inhibition. […] The percentage inhibition is fitted against the compound dilutions with a four-parameter logistic regression. The inflection point (i.e. the concentration at which half-maximal inhibition is achieved) is the IC50.

[2] = test system: ERK phosphorylation in KYSE-520 cells; assay: Phospho-ERK cellular assay; format: cell-based; details: Homo sapiens, KYSE-520, 2 h, KYSE-520 cells, 2 h at 37° C., phospho-ERK1/2 (Thr202/Tyr204) TR-FRET; read-out: PERK IC50
Protocol: ERK phosphorylation was detected using the “Advanced phospho-ERK1/2 (Thr202/Tyr204)” TR-FRET kit (Cisbio, Cat #64AERPEG/H), following the manufacturer reagents and instructions.
Briefly, 20.000/well KYSE-520 cells (DSMZ ACC 371) were plated in 6 μL RPMI-1640 (Invitrogen) growth medium, into 384 white low-volume high base TC microplates (Greiner). After an overnight incubation, cells were treated with DMSO serial diluted compounds and incubated for 2 h at 37° C. After incubation, 2 μL/well of 4×Lysis Buffer (Cisbio 64KL1FDF), were added and incubated with cells for 30 min on gentle shaking. Finally, lysates were added with 2 μL/well of Eu cryptate (donor) and D2 (acceptor) conjugated antibodies (as provided by the Cisbio kit #64AERPEG/H) diluted 1:100 in Detection Buffer (as provided by the Cisbio kit #64AERPEG/H). Plates were then sealed and incubated at room temperature in the dark. After an overnight incubation, the TR-FRET signal was detected on a suitable reader (Envision, PerkinElmer). The lower the TR-FRET signal the higher the higher the SHP2 inhibition in cells.
The activity of each compound dilution was calculated as percentage between vehicle DMSO treated cells and no cells, 0% inhibition and 100% inhibition respectively. The percentage activity is fitted against the compound dilutions with a four-parameter logistic regression. The inflection point (i.e. the concentration at which half-maximal inhibition is achieved) is the IC50.

SHP-2 enzyme (Met1-Leu525), sequence (Q06124 1-525): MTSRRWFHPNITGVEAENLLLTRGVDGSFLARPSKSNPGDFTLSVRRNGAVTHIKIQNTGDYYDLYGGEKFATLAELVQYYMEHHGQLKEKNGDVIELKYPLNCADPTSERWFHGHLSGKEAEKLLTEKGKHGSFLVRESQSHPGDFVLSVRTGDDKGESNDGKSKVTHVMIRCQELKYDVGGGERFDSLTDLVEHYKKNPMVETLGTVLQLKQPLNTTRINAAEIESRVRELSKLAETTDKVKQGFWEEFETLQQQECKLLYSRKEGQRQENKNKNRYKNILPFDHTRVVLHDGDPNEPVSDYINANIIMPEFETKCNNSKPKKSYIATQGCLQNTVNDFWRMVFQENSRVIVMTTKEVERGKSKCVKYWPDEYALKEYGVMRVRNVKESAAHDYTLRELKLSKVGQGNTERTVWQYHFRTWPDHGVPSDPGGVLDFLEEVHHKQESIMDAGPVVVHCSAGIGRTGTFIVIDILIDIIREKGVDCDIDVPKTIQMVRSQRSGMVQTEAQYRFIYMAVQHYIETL

Structure (SMILES)	IC50 [1] [µM]	IC50 [2] [µM]
NCC1(c2ccccc2F)C2CCN(c3cnc4c(-c5cccc6ncccc56)n[nH]c4n3)CC21 (centres unmarked) [Example 5, (7-(2-fluorophenyl)-3-(3-(quinolin-5-yl)-1H-pyrazolo[3,4-b]pyrazin-6-yl)-3-azabicyclo[4.1.0]heptan-7-yl)methanamine]	< 0.5	< 1
Cc1cc(C2(CN)C3CCN(c4cnc5c(-c6cccc(Cl)c6Cl)n[nH]c5n4)CC32)on1 (centres unmarked) [Example 6, (3-(3-(2,3-dichlorophenyl)-1H-pyrazolo[3,4-b]pyrazin-6-yl)-7-(3-methylisoxazol-5-yl)-3-azabicyclo[4.1.0]heptan-7-yl)methanamine]	< 0.5	< 1
NCC1(c2cccc(F)c2)C2CCN(c3cnc4c(-c5cccc(Cl)c5Cl)n[nH]c4n3)CC21 (centres unmarked) [Example 7, (3-(3-(2,3-dichlorophenyl)-1H-pyrazolo[3,4-b]pyrazin-6-yl)-7-(3-fluorophenyl)-3-azabicyclo[4.1.0]heptan-7-yl)methanamine]	< 0.5	< 1
Cc1cc(C2(CN)C3CCN(c4cnc5c(-c6cccc(Cl)c6Cl)n[nH]c5n4)CC32)no1 (centres unmarked) [Example 8, (3-(3-(2,3-dichlorophenyl)-1H-pyrazolo[3,4-b]pyrazin-6-yl)-7-(5-methylisoxazol-3-yl)-3-azabicyclo[4.1.0]heptan-7-yl)methanamine]	< 0.5	< 1
Cc1cc(C2(CN)C3CCN(c4cnc5c(-c6cccc7ncccc67)n[nH]c5n4)CC32)no1 (centres unmarked) [Example 9, (7-(5-methylisoxazol-3-yl)-3-(3-(quinolin-5-yl)-1H-pyrazolo[3,4-b]pyrazin-6-yl)-3-azabicyclo[4.1.0]heptan-7-yl)methanamine]	< 0.5	< 1
NCC1(c2ccc(F)cc2)C2CCN(c3cnc4c(-c5cccc(Cl)c5Cl)n[nH]c4n3)CC21 (centres unmarked) [Example 10, (3-(3-(2,3-dichlorophenyl)-1H-pyrazolo[3,4-b]pyrazin-6-yl)-7-(4-fluorophenyl)-3-azabicyclo[4.1.0]heptan-7-yl)methanamine]	< 0.5	< 1
NCC1(c2ccc(F)cc2)C2CCN(c3cnc4c(-c5ccc6nccnc6c5)n[nH]c4n3)CC21 (centres unmarked) [Example 11, (7-(4-fluorophenyl)-3-(3-(quinoxalin-6-yl)-1H-pyrazolo[3,4-b]pyrazin-6-yl)-3-azabicyclo[4.1.0]heptan-7-yl)methanamine]	< 0.5	> 5
NCC1(c2ccc(F)cc2)C2CCN(c3cnc4c(-c5cccc6cccnc56)n[nH]c4n3)CC21 (centres unmarked) [Example 12, (7-(4-fluorophenyl)-3-(3-(quinolin-8-yl)-1H-pyrazolo[3,4-b]pyrazin-6-yl)-3-azabicyclo[4.1.0]heptan-7-yl)methanamine]	0.5 to 3	> 5
Cn1cc(C2(CN)C3CCN(c4cnc5c(-c6cccc(Cl)c6Cl)n[nH]c5n4)CC32)nn1 (centres unmarked) [Example 13, (3-(3-(2,3-dichlorophenyl)-1H-pyrazolo[3,4-b]pyrazin-6-yl)-7-(1-methyl-1H-1,2,3-triazol-4-yl)-3-azabicyclo[4.1.0]heptan-7-yl)methanamine]	< 0.5	< 1
Cc1conc1C1(CN)C2CCN(c3cnc4c(-c5cccc(Cl)c5Cl)n[nH]c4n3)CC21 (centres unmarked) [Example 14, (3-(3-(2,3-dichlorophenyl)-1H-pyrazolo[3,4-b]pyrazin-6-yl)-7-(4-methylisoxazol-3-yl)-3-azabicyclo[4.1.0]heptan-7-yl)methanamine]	< 0.5	< 1
Cc1conc1C1(CN)C2CCN(c3cnc4c(-c5ccc6nn(C)cc6c5Cl)n[nH]c4n3)CC21 (centres unmarked) [Example 15, (3-(3-(4-chloro-2-methyl-2H-indazol-5-yl)-1H-pyrazolo[3,4-b]pyrazin-6-yl)-7-(4-methylisoxazol-3-yl)-3-azabicyclo[4.1.0]heptan-7-yl)methanamine]	< 0.5	< 1
CNc1nccc(-c2n[nH]c3nc(N4CCC5C(C4)C5(CN)c4ccccc4F)cnc23)c1Cl (centres unmarked) [Example 16, 4-(6-(7-(aminomethyl)-7-(2-fluorophenyl)-3-azabicyclo[4.1.0]heptan-3-yl)-1H-pyrazolo[3,4-b]pyrazin-3-yl)-3-chloro-N-methylpyridin-2-amine]	< 0.5	< 1

Continued, values first:

IC50 [1] [µM]	IC50 [2] [µM]	Structure (SMILES)
< 0.5	< 1	CNc1nccc(-c2n[nH]c3nc(N4CCC5C(C4)C5(CN)c4cc(C)on4)cnc23)c1Cl (centres unmarked) [Example 17, 4-(6-(7-(aminomethyl)-7-(5-methylisoxazol-3-yl)-3-azabicyclo[4.1.0]heptan-3-yl)-1H-pyrazolo[3,4-b]pyrazin-3-yl)-3-chloro-N-methylpyridin-2-amine]
< 0.5	< 1	Cc1cc(C2(CN)C3CCN(c4cnc5c(-c6ccnc7ccsc67)n[nH]c5n4)CC32)no1 (centres unmarked) [Example 18, (7-(5-methylisoxazol-3-yl)-3-(3-(thieno[3,2-b]pyridin-7-yl)-1H-pyrazolo[3,4-b]pyrazin-6-yl)-3-azabicyclo[4.1.0]heptan-7-yl)methanamine]
< 0.5	< 1	Cc1cc(C2(CN)C3CCN(c4cnc5c(-c6cccc7c6CNC7=O)n[nH]c5n4)CC32)no1 (centres unmarked) [Example 19, 4-(6-(7-(aminomethyl)-7-(5-methylisoxazol-3-yl)-3-azabicyclo[4.1.0]heptan-3-yl)-1H-pyrazolo[3,4-b]pyrazin-3-yl)isoindolin-1-one]
< 0.5	< 1	Cc1cc(C2(CN)C3CCN(c4cnc5c(-c6ccc7scnc7c6)n[nH]c5n4)CC32)no1 (centres unmarked) [Example 20, (3-(3-(benzo[d]thiazol-5-yl)-1H-pyrazolo[3,4-b]pyrazin-6-yl)-7-(5-methylisoxazol-3-yl)-3-azabicyclo[4.1.0]heptan-7-yl)methanamine]
< 0.5	< 1	Cc1cc(C2(CN)C3CCN(c4cnc5c(-c6ccc(C)c7ncccc67)n[nH]c5n4)CC32)no1 (centres unmarked) [Example 21, (7-(5-methylisoxazol-3-yl)-3-(3-(8-methylquinolin-5-yl)-1H-pyrazolo[3,4-b]pyrazin-6-yl)-3-azabicyclo[4.1.0]heptan-7-yl)methanamine]
< 0.5	< 1	COc1ccc(-c2n[nH]c3nc(N4CCC5C(C4)C5(CN)c4cc(C)on4)cnc23)c2cccnc12 (centres unmarked) [Example 22, (3-(3-(8-methoxyquinolin-5-yl)-1H-pyrazolo[3,4-b]pyrazin-6-yl)-7-(5-methylisoxazol-3-yl)-3-azabicyclo[4.1.0]heptan-7-yl)methanamine]
< 0.5	< 1	Cc1cc(C2(CN)C3CCN(c4cnc5c(-c6cccc7cnccc67)n[nH]c5n4)CC32)no1 (centres unmarked) [Example 23, (3-(3-(isoquinolin-5-yl)-1H-pyrazolo[3,4-b]pyrazin-6-yl)-7-(5-methylisoxazol-3-yl)-3-azabicyclo[4.1.0]heptan-7-yl)methanamine]
< 0.5	< 1	Cc1cc(C2(CN)C3CCN(c4cnc5c(-c6ccc7nn(C)cc7c6Cl)n[nH]c5n4)CC32)no1 (centres unmarked) [Example 24, (3-(3-(4-chloro-2-methyl-2H-indazol-5-yl)-1H-pyrazolo[3,4-b]pyrazin-6-yl)-7-(5-methylisoxazol-3-yl)-3-azabicyclo[4.1.0]heptan-7-yl)methanamine]
< 0.5	< 1	Cc1ccc2c(-c3n[nH]c4nc(N5CCC6C(C5)C6(CN)c5cc(C)on5)cnc34)cccc2n1 (centres unmarked) [Example 25, (7-(5-methylisoxazol-3-yl)-3-(3-(2-methylquinolin-5-yl)-1H-pyrazolo[3,4-b]pyrazin-6-yl)-3-azabicyclo[4.1.0]heptan-7-yl)methanamine]
< 0.5	< 1	Cc1cc(C2(CN)C3CCN(c4cnc5c(-c6cccc7nn(C)cc67)n[nH]c5n4)CC32)no1 (centres unmarked) [Example 26, (3-(3-(2-methyl-2H-indazol-4-yl)-1H-pyrazolo[3,4-b]pyrazin-6-yl)-7-(5-methylisoxazol-3-yl)-3-azabicyclo[4.1.0]heptan-7-yl)methanamine]

From patent US20240109900A1, “AZABICYCLIC SHP2 INHIBITORS” (IRBM S.P.A., priority 2021, published 2024)
